Experimental data from PMC11080019, “Synthesis and Biological Profiling of Quinolino-Fused 7-Deazapurine Nucleosides” (ACS Omega, 2024).

Tests used:
U2OS (bone osteosarcoma) = experiment: MTS cytotoxicity assay, U2OS; type: cell-based; conditions: Homo sapiens
Experimental: (§1) All the titled nucleosides 14a–g were tested for their in vitro cytotoxic activity. The following cancer cell lines were used for the study: A549 (lung cancer), CCRF-CEM (acute T-lymphoblastic leukemia), HCT116 and HCT116p53^– (colon carcinoma, parental and p53 deficient), K562 (chronic myelogenous leukemia), and U2OS (bone osteosarcoma) using a colorimetric MTS assay.[25] Additionally, HeLa (cervical cancer), HepG2 (hepatocellular liver carcinoma), and HL60 (acute promyelocytic leukemia) cell lines were tested using the luminescent CellTiter-Glo assay. For comparison, nonmalignant fibroblast cell lines (BJ and MRC-5) were included in the MTS assay, whereas noncancerous human dermal fibroblasts (NHDF) were assessed with the CellTiter-Glo assay.[26] Initial screenings were done at 50 μM concentration for the MTS assay and 10 μM for the CellTiter-Glo assay.
(§2) Unless otherwise stated, all reactions were carried out under an argon atmosphere. An oil bath was used for reactions requiring heating. Thin-layer chromatography (TLC) was performed on Merck silica gel 60 F-254 aluminum sheets. Visualization was obtained by UV light (λmax = 254 or 366 nm). High-performance flash chromatography (HPFC) was conducted with a Combi Flash Rf instrument from Teledyne Isco Inc. using SiO2 (particle size 0.040–0.063 mm, 230–400 mesh) from Fluorochem in refillable flash columns or HP C18 Redi Sep Rfgold flash columns with the solvent gradient indicated in the corresponding procedures. Preparative high-pressure liquid chromatography (prep. HPLC) was performed on a Waters 2535 Quaternary Gradient System with a fraction collector. Melting points (m.p.) were measured by Bohunka Šperlichová at Charles University Prague on a Büchi Melting Point B-545 apparatus using open glass capillaries and are uncorrected. Optical rotation of final nucleosides was measured by the analytical laboratory at IOCB Prague using an AUTOPOL IV automatic polarimeter from Rudolph Research Analytical at 20 °C and 589 nm. The sample concentration c is given in g mL^–1. ^1H and ^13C{^1H} NMR spectra were measured on a Bruker Avance III 500 MHz spectrometer at 25 °C in CDCl3 referenced to the residual solvent signal (δH = 7.26 ppm, δC = 77.16 ppm), in deuterated dimethyl sulfoxide (DMSO-d6) referenced to the residual solvent signal (δH = 2.50 ppm, δC = 39.52 ppm], or in D2O with tBuOH-d10 as the external standard [δH = 1.25 ppm, δC = 31.6 ppm]. ^31P NMR NMR spectra were referenced externally to the signal of H3PO4. Coupling constants (J) are given in Hz, and the multiplets are described as s (singlet), d (doublet), t (triplet), q (quartet), m (multiplet), and b (broad). ^13C{^1H} NMR experiments were broadband proton-decoupled and were performed using APT pulse sequence. DFQ-COSY, HSQC, and HMBC experiments were used to assign the ^1H and ^13C NMR signals where required. ROESY experiments were used to confirm the relative stereochemistry of nucleosides 11 and 12. To simplify the assignment, the benzoyl group attached to the 2′-hydroxy group of the ribofuranose ring was given the letter A, the one attached to the 3′-hydroxy group is considered B, and the benzoyl group at 5′-OH is called C (Figure 3). All spectra can be found in Supporting Information S6. In the ROESY spectra for nucleosides 11, 12-β, and 12-α, the important relations for the determination of the stereochemistry are highlighted. Infrared spectra (IR) were recorded on a Bruker ALPHA FT-IR spectrometer with a single-reflection Platinum ATR module. The compounds were measured in their initial state of appearance at 20 °C, and their absorption bands were reported in wavenumbers (ṽ) in the range between 4000 and 400 cm^–1. Intensities are described as strong (s), medium (m), and weak (w). UV/vis spectra were measured on a Varian Cary 100 Bio UV–visible spectrophotometer in the range 250–800 nm using transparent 1.5 mL quartz cuvettes. Fluorescence spectra were recorded on a Fluoromax 4 spectrofluorimeter from HORIBA Scientific. […]

[1] = tested on: HL60 (acute promyelocytic leukemia); experiment: CellTiter-Glo cytotoxicity assay, HL60; type: cell-based; conditions: Homo sapiens, HL-60, top concentration 10 μM
Experimental: as §1, §2

[2] = tested on: cancer cell lines and nonmalignant fibroblast cell lines; experiment: In vitro cytotoxic activity across the whole cell line panel (MTS and CellTiter-Glo); type: cell-based; conditions: for cytotoxicity against nonmalignant cell lines BJ, MRC-5, and NHDF (in words): MRC-5, NHDF; for cytotoxic activity across tested cell lines (in words): whole panel of tested cell lines
Experimental: as §1, §2

[3] = tested on: HCT116p53– (colon carcinoma, p53 deficient); experiment: MTS cytotoxicity assay, HCT116p53–; type: cell-based
Experimental: as §1, §2

MRC-5 = experiment: MTS cytotoxicity assay, MRC-5 fibroblasts; type: cell-based; conditions: Homo sapiens, MRC5; nonmalignant fibroblasts MRC-5; top concentration 50 μM
Experimental: as §1, §2

BJ = experiment: MTS cytotoxicity assay, BJ fibroblasts; type: cell-based; conditions: Homo sapiens; nonmalignant fibroblasts BJ; top concentration 50 μM
Experimental: as §1, §2

HeLa (cervical cancer) = experiment: CellTiter-Glo cytotoxicity assay, HeLa; type: cell-based; conditions: Homo sapiens, top concentration 10 μM
Experimental: as §1, §2

[4] = tested on: HCT116 (colon carcinoma, parental); experiment: MTS cytotoxicity assay, HCT116; type: cell-based; conditions: Homo sapiens, HCT-116
Experimental: as §1, §2

[5] = tested on: K562 (chronic myelogenous leukemia); experiment: MTS cytotoxicity assay, K562; type: cell-based; conditions: Homo sapiens
Experimental: as §1, §2

[6] = tested on: noncancerous human dermal fibroblasts (NHDF); experiment: CellTiter-Glo cytotoxicity assay, NHDF; type: cell-based; conditions: top concentration 10 μM
Experimental: as §1, §2

[7] = tested on: HepG2 (hepatocellular liver carcinoma); experiment: CellTiter-Glo cytotoxicity assay, HepG2; type: cell-based; conditions: Homo sapiens, top concentration 10 μM
Experimental: as §1, §2

[8] = tested on: CCRF-CEM (acute T-lymphoblastic leukemia); experiment: MTS cytotoxicity assay, CCRF-CEM; type: cell-based; conditions: for IC50: Homo sapiens
Experimental: as §1, §2

A549 (lung cancer) = experiment: MTS cytotoxicity assay, A549; type: cell-based; conditions: Homo sapiens
Experimental: as §1, §2

| melting point | SMILES | IC50 (U2OS (bone osteosarcoma)) | IC50 [1] | cytotoxicity against nonmalignant cell lines BJ, MRC-5, and NHDF (in words) [2] | cytotoxic activity across tested cell lines (in words) [2] | IC50 [3] | IC50 (MRC-5) | IC50 (BJ) | IC50 (HeLa (cervical cancer)) | IC50 [4] | IC50 [5] | IC50 [6] | IC50 [7] | IC50 [8] | IC50 (A549 (lung cancer)) | activity against the CCRF-CEM leukemia line (in words) [8] |
| --- | --- | --- | --- | --- | --- | --- | --- | --- | --- | --- | --- | --- | --- | --- | --- | --- |
| 190 to 205 °C (dec.) | COc1ncnc2c1c1c3cccnc3ccc1n2[C@@H]1O[C@H](CO)[C@@H](O)[C@H]1O [14f, 11-Methoxy-7-(β-D-ribofuranosyl)pyrimido[5′,4′:4,5]pyrrolo[3,2-f]quinoline] | 17.3 µM | 5.2 µM | no cytotoxicity | moderate cytotoxic activity | 23.1 µM | > 50 µM | > 50 µM | > 10 µM | 9.8 µM | 40.2 µM | > 10 µM | > 10 µM | 8 µM | 27.4 µM |  |
| 210 to 235 °C (dec.) | Nc1ncnc2c1c1c3cccnc3ccc1n2[C@@H]1O[C@H](CO)[C@@H](O)[C@H]1O [14e, 11-Amino-7-(β-D-ribofuranosyl)pyrimido[5′,4′:4,5]pyrrolo[3,2-f]quinoline] | 17.1 µM | 5.2 µM | no cytotoxicity | moderate cytotoxic activity | 17.3 µM | > 50 µM | > 50 µM | > 10 µM | 18.9 µM | 10 µM | > 10 µM | 8.6 µM | 8.5 µM | > 50 µM |  |
| 256 °C | Cc1ncnc2c1c1c3cccnc3ccc1n2[C@@H]1O[C@H](CO)[C@@H](O)[C@H]1O [14c, 11-Methyl-7-(β-D-ribofuranosyl)pyrimido[5′,4′:4,5]pyrrolo[3,2-f]quinoline] | 13.1 µM | 6.7 µM | no cytotoxicity | moderate cytotoxic activity | 17 µM | > 50 µM | > 50 µM | > 10 µM | 17 µM | 11.9 µM | > 10 µM | > 10 µM | 6.5 µM | 26.4 µM |  |
| 228 to 242 °C (dec.) | CSc1ncnc2c1c1c3cccnc3ccc1n2[C@@H]1O[C@H](CO)[C@@H](O)[C@H]1O [14g, 11-Methylthio-7-(β-D-ribofuranosyl)pyrimido[5′,4′:4,5]pyrrolo[3,2-f]quinoline] | 15 µM | 9.3 µM |  | moderate cytotoxic activity | 16.2 µM | 36.8 µM | 36.8 µM | > 10 µM | 9.3 µM | 18.6 µM | > 10 µM | > 10 µM | 5.1 µM | 17 µM |  |

Second part, the molecule before the results:

| SMILES | melting point | IC50 (U2OS (bone osteosarcoma)) | IC50 [1] | cytotoxicity against nonmalignant cell lines BJ, MRC-5, and NHDF (in words) [2] | cytotoxic activity across tested cell lines (in words) [2] | IC50 [3] | IC50 (MRC-5) | IC50 (BJ) | IC50 (HeLa (cervical cancer)) | IC50 [4] | IC50 [5] | IC50 [6] | IC50 [7] | IC50 [8] | IC50 (A549 (lung cancer)) | activity against the CCRF-CEM leukemia line (in words) [8] |
| --- | --- | --- | --- | --- | --- | --- | --- | --- | --- | --- | --- | --- | --- | --- | --- | --- |
| OC[C@H]1O[C@@H](n2c3ccc4ncccc4c3c3c(-c4cc5ccccc5o4)ncnc32)[C@H](O)[C@@H]1O [14b, 11-(Benzofuran-2-yl)-7-(β-D-ribofuranosyl)pyrimido[5′,4′:4,5]pyrrolo[3,2-f]quinoline] | 124 °C | > 50 µM | > 10 µM |  |  | 43.2 µM | > 50 µM | > 50 µM | > 10 µM | 36 µM | > 50 µM | > 10 µM | 2.8 µM | 18.6 µM | > 50 µM | weak activity |
| CN(C)c1ncnc2c1c1c3cccnc3ccc1n2[C@@H]1O[C@H](CO)[C@@H](O)[C@H]1O [14d, 11-(N,N-Dimethylamino)-7-(β-D-ribofuranosyl)pyrimido[5′,4′:4,5]pyrrolo[3,2-f]quinoline] | 240 °C | > 50 µM | > 10 µM |  | did not show any cytotoxicity whatsoever | > 50 µM | > 50 µM | > 50 µM | > 10 µM | > 50 µM | > 50 µM | > 10 µM | > 10 µM | > 50 µM | > 50 µM |  |
| OC[C@H]1O[C@@H](n2c3ccc4ncccc4c3c3c(-c4ccco4)ncnc32)[C@H](O)[C@@H]1O [14a, 11-(Furan-2-yl)-7-(β-D-ribofuranosyl)pyrimido[5′,4′:4,5]pyrrolo[3,2-f]quinoline] |  | > 50 µM | > 10 µM |  |  | > 50 µM | > 50 µM | > 50 µM | > 10 µM | > 50 µM | > 50 µM | > 10 µM | > 10 µM | 38.5 µM | > 50 µM | weak activity |
